Laboratory results taken from patent US11149066B2, “Thrombospondin 1-binding peptide” (DAIICHI SANKYO COMPANY, LIMITED, priority 2016, dated 2021).
Positions of bridges follow the written chain, without caps; N, C: chain ends. Non-standard residues stand in square brackets, D forms with d. Residues, ends and D or L forms follow the SMILES beside them. Trp(6-Cl) = N[C@@H](Cc1c[nH]c2cc(Cl)ccc12)C(=O)O; Phe(4-CH2NH2) = NCc1ccc(C[C@H](N)C(=O)O)cc1; 2Nal = N[C@@H](Cc1ccc2ccccc2c1)C(=O)O; hCys = N[C@@H](CCS)C(=O)O; Nle = CCCC[C@H](N)C(=O)O

These molecules were tested against human TSP1 (Homo sapiens, UniProt P07996) (assay: Cell adhesion inhibition assay (HUVEC adhesion to TSP1-coated plate)). Conditions: HUVEC adhesion to TSP1-coated plate; read-out: cell adhesion inhibition (Table 4).
human TSP1, sequence (P07996 19-1170 limits assumed): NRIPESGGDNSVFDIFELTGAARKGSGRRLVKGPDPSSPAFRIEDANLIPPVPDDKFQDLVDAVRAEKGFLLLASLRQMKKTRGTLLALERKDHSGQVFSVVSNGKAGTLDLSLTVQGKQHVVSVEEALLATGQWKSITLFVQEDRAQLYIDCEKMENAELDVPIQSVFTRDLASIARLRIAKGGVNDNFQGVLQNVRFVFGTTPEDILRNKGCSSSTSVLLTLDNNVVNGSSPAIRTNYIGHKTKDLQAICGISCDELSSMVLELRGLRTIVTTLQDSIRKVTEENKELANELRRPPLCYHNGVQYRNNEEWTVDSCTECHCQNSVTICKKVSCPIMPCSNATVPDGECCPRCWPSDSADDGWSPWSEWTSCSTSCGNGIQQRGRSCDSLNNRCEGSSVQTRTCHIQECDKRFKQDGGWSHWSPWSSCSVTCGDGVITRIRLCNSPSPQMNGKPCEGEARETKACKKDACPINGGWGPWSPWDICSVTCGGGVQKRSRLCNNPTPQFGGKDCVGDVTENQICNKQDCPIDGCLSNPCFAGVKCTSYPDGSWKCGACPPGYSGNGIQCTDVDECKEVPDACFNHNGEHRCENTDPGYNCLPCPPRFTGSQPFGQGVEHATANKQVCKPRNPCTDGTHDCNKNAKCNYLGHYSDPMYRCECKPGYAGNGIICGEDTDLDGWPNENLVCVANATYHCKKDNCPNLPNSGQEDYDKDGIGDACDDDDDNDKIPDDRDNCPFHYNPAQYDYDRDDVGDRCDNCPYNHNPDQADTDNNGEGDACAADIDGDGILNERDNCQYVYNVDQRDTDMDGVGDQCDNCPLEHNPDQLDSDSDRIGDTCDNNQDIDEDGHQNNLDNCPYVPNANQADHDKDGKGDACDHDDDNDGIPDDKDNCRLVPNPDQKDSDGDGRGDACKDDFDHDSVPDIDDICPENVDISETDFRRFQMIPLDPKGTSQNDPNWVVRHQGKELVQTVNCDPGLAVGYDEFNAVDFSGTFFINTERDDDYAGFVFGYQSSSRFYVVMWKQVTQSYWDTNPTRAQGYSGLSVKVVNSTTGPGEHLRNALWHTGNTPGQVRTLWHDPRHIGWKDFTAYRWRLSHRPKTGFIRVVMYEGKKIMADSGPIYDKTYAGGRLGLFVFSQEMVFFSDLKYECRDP
Type: cell-based
Protocol: As referred to herein, the TSP1 inhibitory activity refers to the activity to inhibit one or more effects of TSP1, including angiostatic effect. The TSP1 inhibitory activity is measured by a cell adhesion inhibition assay using human TSP1 and vascular endothelial cells as described hereinbelow in the Examples section. In this assay, when the 50% inhibitory concentration (IC5O) of a test substance is 200 nM or less, the test substance is determined to have TSP1 inhibitory activity.
(Test Example 1) Cell Adhesion Inhibition Assay
I. Materials and Reagents
96 well Non-treated White with clear bottom (Coster, 3632)
BrightMax adhesive sealing films (EXCEL Scientific, WT50)
Proteosave®SS 15 mL (Sumitomo Bakelite, MS-52150)
Thrombospondin human platelet (Calbiochem, 605225)
EGM-2 MV (Lonza, CC-3202): for HUVEC passaging
Collagen coated dish (IWAKI, 4020-010): for HUVEC passaging
Lipidure®-BL802 (NOF Corporation), 5% solution
Albumin solution (35%) fraction V from Bovine (Sigma, A7979)
CellTiter-Glo (Promega, G7572)
Thrombospondin 1 vial (25 μg) was dissolved in TBS (+2 mM CaCl2; the same shall apply hereunder) to make a 200 μg/mL solution, which was diluted with TBS to a concentration of 10 μg/mL in Proteosave® 15 mL tube. The 10 μg/mL solution was dispensed into a 96 well plate at a volume of 50 μL/well (no reservoir was used since the protein easily adsorbs on it), and the plate was left to stand at 4° C. overnight.
Lipidure® was diluted 10-fold with TBS to make a 0.5% solution. After a buffer was discarded from the plate that had been coated at the step of <Plate coat> as described above, the 0.5% solution was dispensed into all wells to be used at a volume of 100 μL/well, and the plate was left to stand at room temperature for 1 hour.
A 0.2 μM solution of each sample was prepared using a dilution buffer (DMEM+0.5% BSA). 2 μL of the 0.2 μM solution was diluted with 500 μL, of dilution buffer to prepare a diluted sample. As a vehicle control, DMSO was diluted in the same way as the samples.
A blocking solution was discarded from the plate that had been treated at the step of <Plate blocking> as described above, and the plate was washed three times with 150 μL/well of TBS. The washing solution used for the third washing was completely sucked out by an aspirator, and the diluted sample was dispensed into the plate at a volume of 50 μL/well. Then, the plate was left to stand at room temperature for 15 to 30 minutes.
To maintain HUVECs, EGM2-MV and a collagen coated dish were used (the cells were ceased to be used after 10th or 1 lth passage since the cell proliferation rate declined at this stage). The cells were dispersed with 0.05% Trypsin/EDTA, harvested in DMEM/0.5% BSA, and centrifuged at 1000 rpm for 3 minutes. After removal of supernatant, the cells were washed once with a DMEM buffer. The cells were resuspended in a DMEM buffer, counted for cell number, and diluted to 10000 cells/50 μL. The cell suspension was dispensed at a volume of 50 μL/well into the plate into which the sample had been dispensed, mixed gently, and incubated at 37° C. for 2.5 hours.
After cell adhesion was confirmed, the culture medium was completely removed by an aspirator, and 100 μL/well of DMEM/0.5% BSA was gently dispensed. Then, DMEM/0.5% BSA was completely removed by an aspirator, and 50 μL/well of DMEM/0.5% BSA was dispensed. After a white seal was applied to the bottom of the plate, 50 μL/well of CellTiter-Glo® was dispensed, and the solution was stirred for 2 minutes and left to stand at room temperature for 8 minutes. […] was detected using EnVision Xcite Multilabel Reader (produced by Perkin Elmer).
On the basis of the measured fluorescence values, the IC50 values (nM) of the different macrocyclic polypeptides for inhibition of cell adhesion were calculated.

`CCCC[C@@H]1NC(=O)[C@H](Cc2c[nH]c3ccccc23)NC(=O)[C@H](CC(=O)O)NC(=O)[C@H](CCCNC(=N)N)NC(=O)CNC(=O)[C@H](CO)NC(=O)[C@H]([C@@H](C)CC)NC(=O)[C@H](Cc2ccc3ccccc3c2)NC(=O)[C@H](C)NC(=O)CSC[C@@H](C(N)=O)NC(=O)[C@H](C(C)C)NC(=O)[C@H](Cc2c[nH]c3ccccc23)NC(=O)[C@H](CCCCN)NC1=O` [Compound 80] ({CH2CO}-A[2Nal]ISGRDW[Nle]KWVC-NH2; thioether N-13) and `CCCC[C@@H]1NC(=O)[C@H](Cc2c[nH]c3ccccc23)NC(=O)[C@H](CC(=O)O)NC(=O)[C@H](CCCNC(=N)N)NC(=O)CNC(=O)[C@H](CO)NC(=O)[C@H]([C@@H](C)CC)NC(=O)[C@H](Cc2ccc3ccccc3c2)NC(=O)[C@H]([C@@H](C)O)NC(=O)CSC[C@@H](C(N)=O)NC(=O)[C@H](C(C)C)NC(=O)[C@H](Cc2c[nH]c3ccccc23)NC(=O)[C@H](CCCCN)NC1=O` [Compound 85] ({CH2CO}-T[2Nal]ISGRDW[Nle]KWVC-NH2; thioether N-13) are within 1.5-fold of each other in IC50: 11.5 nM for the first, 15.5 nM for the second.

Same assay, conditions: HUVEC adhesion to human platelet thrombospondin-coated plate, 2.5 hours, CellTiter-Glo; read-out: Cell adhesion IC50

First: CC[C@H](C)[C@@H]1NC(=O)[C@H](Cc2ccccc2)NC(=O)CSC[C@@H](C(N)=O)NC(=O)[C@H](C(C)C)NC(=O)[C@H](Cc2c[nH]c3ccccc23)NC(=O)[C@H](CCCCN)NC(=O)[C@H](CCSC)NC(=O)[C@H](Cc2c[nH]c3ccccc23)NC(=O)[C@H](CC(N)=O)NC(=O)[C@H](CCCCN)NC(=O)CNC(=O)[C@H](CO)NC1=O [Compound 19] ({CH2CO}-FISGKNWMKWVC-NH2; thioether N-12)
Second: CC[C@H](C)[C@@H]1NC(=O)[C@H](Cc2c[nH]c3ccccc23)NC(=O)CSC[C@@H](C(N)=O)NC(=O)[C@H](C(C)C)NC(=O)[C@H](Cc2c[nH]c3ccccc23)NC(=O)[C@H](CCCCN)NC(=O)[C@H](C(C)C)NC(=O)[C@H](Cc2c[nH]c3ccccc23)NC(=O)[C@H](CC(N)=O)NC(=O)[C@H](CCCCN)NC(=O)CNC(=O)[C@H](CO)NC1=O [Compound 16] ({CH2CO}-WISGKNWVKWVC-NH2; thioether N-12)
The IC50 of the first is 1.5-fold lower: 14 nM for the first, 21 nM for the second. The first is the more potent here.

`CC[C@H](C)[C@@H]1NC(=O)[C@H](Cc2c[nH]c3ccccc23)NC(=O)CSC[C@@H](C(N)=O)NC(=O)[C@H](C(C)C)NC(=O)[C@H](Cc2c[nH]c3ccccc23)NC(=O)[C@H](CCCCN)NC(=O)[C@H](C(C)C)NC(=O)[C@H](Cc2c[nH]c3ccccc23)NC(=O)[C@H]([C@@H](C)O)NC(=O)[C@H](CCCCN)NC(=O)CNC(=O)[C@H](CO)NC1=O` [Compound 20] ({CH2CO}-WISGKTWVKWVC-NH2; thioether N-12) and `CC[C@H](C)[C@@H]1NC(=O)[C@H](Cc2ccccc2)NC(=O)CSC[C@@H](C(N)=O)NC(=O)[C@H](C(C)C)NC(=O)[C@H](Cc2c[nH]c3ccccc23)NC(=O)[C@H](CCCCN)NC(=O)[C@H](C(C)C)NC(=O)[C@H](Cc2c[nH]c3ccccc23)NC(=O)[C@H]([C@@H](C)O)NC(=O)[C@H](CCCCN)NC(=O)CNC(=O)[C@H](CO)NC1=O` [Compound 18] ({CH2CO}-FISGKTWVKWVC-NH2; thioether N-12) are the same in IC50: 13 nM for the first, 13 nM for the second.

`CC(C)[C@@H]1NC(=O)[C@H](Cc2c[nH]c3ccccc23)NC(=O)[C@H](CCCNC(=N)N)NC(=O)[C@H](C(C)C)NC(=O)[C@H](Cc2c[nH]c3ccccc23)NC(=O)[C@H](CC(N)=O)NC(=O)[C@H](CCCNC(=N)N)NC(=O)CNC(=O)[C@H](CO)NC(=O)[C@H](CCCNC(=N)N)NC(=O)[C@H](Cc2ccccc2)NC(=O)CSC[C@@H](C(N)=O)NC1=O` [Compound 8] ({CH2CO}-FRSGRNWVRWVC-NH2; thioether N-12) and `CC[C@H](C)[C@@H]1NC(=O)[C@H](Cc2c[nH]c3ccccc23)NC(=O)CSC[C@@H](C(N)=O)NC(=O)[C@H](C(C)C)NC(=O)[C@H](Cc2c[nH]c3ccccc23)NC(=O)[C@H](CCCNC(=N)N)NC(=O)[C@H](C(C)C)NC(=O)[C@H](Cc2c[nH]c3ccccc23)NC(=O)[C@H](CC(N)=O)NC(=O)[C@H](CCCNC(=N)N)NC(=O)CNC(=O)[C@H](CO)NC1=O` [Compound 11] ({CH2CO}-WISGRNWVRWVC-NH2; thioether N-12) are within 1.5-fold of each other in IC50: 33.4 nM for the first, 26 nM for the second.

`CC[C@H](C)[C@@H]1NC(=O)[C@H](Cc2ccc3ccccc3c2)NC(=O)CSC[C@@H](C(N)=O)NC(=O)[C@H](C(C)C)NC(=O)[C@H](Cc2c[nH]c3ccccc23)NC(=O)[C@H](CCCCN)NC(=O)[C@H](C(C)C)NC(=O)[C@H](Cc2c[nH]c3ccccc23)NC(=O)[C@H](CC(N)=O)NC(=O)[C@H](CCCNC(=N)N)NC(=O)CNC(=O)[C@H](C)NC1=O` [Compound 30] ({CH2CO}-[2Nal]IAGRNWVKWVC-NH2; thioether N-12) and `CC[C@H](C)[C@@H]1NC(=O)[C@H](Cc2ccc3ccccc3c2)NC(=O)CSCC[C@@H](C(N)=O)NC(=O)[C@H](C(C)C)NC(=O)[C@H](Cc2c[nH]c3ccccc23)NC(=O)[C@H](CCCCN)NC(=O)[C@H](C(C)C)NC(=O)[C@H](Cc2c[nH]c3ccccc23)NC(=O)[C@H](CC(N)=O)NC(=O)[C@H](CCCNC(=N)N)NC(=O)CNC(=O)[C@H](CO)NC1=O` [Compound 54] ({CH2CO}-[2Nal]ISGRNWVKWV[hCys]-NH2; thioether N-12) are within 1.5-fold of each other in IC50: 16.7 nM for the first, 19.5 nM for the second.

`CC(C)[C@@H]1NC(=O)[C@H](Cc2c[nH]c3ccccc23)NC(=O)[C@H](CCCCN)NC(=O)[C@H](C(C)C)NC(=O)[C@H](Cc2c[nH]c3ccccc23)NC(=O)[C@H](CC(N)=O)NC(=O)[C@H](CCCNC(=N)N)NC(=O)CNC(=O)[C@H](CO)NC(=O)[C@H](Cc2c[nH]c3ccccc23)NC(=O)[C@H](Cc2ccc3ccccc3c2)NC(=O)CSC[C@@H](C(N)=O)NC1=O` [Compound 33] ({CH2CO}-[2Nal]WSGRNWVKWVC-NH2; thioether N-12) and `CC[C@H](C)[C@@H]1NC(=O)[C@H](Cc2ccc3ccccc3c2)NC(=O)CSC[C@@H](C(N)=O)NC(=O)[C@H](C(C)C)NC(=O)[C@H](Cc2c[nH]c3ccccc23)NC(=O)[C@H](CCCCN)NC(=O)[C@H](C(C)C)NC(=O)[C@H](Cc2c[nH]c3cc(Cl)ccc23)NC(=O)[C@H](CC(N)=O)NC(=O)[C@H](CCCNC(=N)N)NC(=O)CNC(=O)[C@H](CO)NC1=O` [Compound 35] ({CH2CO}-[2Nal]ISGRN[Trp(6-Cl)]VKWVC-NH2; thioether N-12) are within 1.5-fold of each other in IC50: 20.7 nM for the first, 26 nM for the second.

`CC[C@H](C)[C@@H]1NC(=O)[C@H](Cc2ccccc2)NC(=O)CSC[C@@H](C(N)=O)NC(=O)[C@H](C(C)C)NC(=O)[C@H](Cc2c[nH]c3ccccc23)NC(=O)[C@H](Cc2ccc(CN)cc2)NC(=O)[C@H](C(C)C)NC(=O)[C@H](Cc2c[nH]c3ccccc23)NC(=O)[C@H](CC(N)=O)NC(=O)[C@H](CCCNC(=N)N)NC(=O)CNC(=O)[C@H](CO)NC1=O` [Compound 47] ({CH2CO}-FISGRNWV[Phe(4-CH2NH2)]WVC-NH2; thioether N-12) and `CCCC[C@@H]1NC(=O)[C@H](Cc2c[nH]c3ccccc23)NC(=O)[C@H](CC(=O)O)NC(=O)[C@H](CCCNC(=N)N)NC(=O)CNC(=O)[C@H](CO)NC(=O)[C@H]([C@@H](C)CC)NC(=O)[C@H](Cc2ccc3ccccc3c2)NC(=O)CNC(=O)CSC[C@@H](C(N)=O)NC(=O)[C@H](C(C)C)NC(=O)[C@H](Cc2c[nH]c3ccccc23)NC(=O)[C@H](CCCCN)NC1=O` [Compound 75] ({CH2CO}-G[2Nal]ISGRDW[Nle]KWVC-NH2; thioether N-13) are within 1.5-fold of each other in IC50: 16.7 nM for the first, 16.1 nM for the second.
